Measured values: patent publication US20240083933A1, “DISACCHARIDES FOR TREATING BONE DISEASES” (UNIVERSITE DE PICARDIE JULES VERNE, priority 2020, published 2024)

Tests used:
[1] = tested on: bone defects in the skull of rats; assay: Cranial bone defect model with implanted support; type: in vivo; set-up: key to BMD / BV/TV: =: no difference; N/A: not applicable; *p ≤ 0.05; **p ≤ 0.01; ***p ≤ 0.001
Protocol: The Sprague-Dawley rats are provided by Janvier Labs (Le Genest-Saint-Isle, France) and housed in the PLATAN animal facility of the UPJV. The rats were maintained under a 12-hour day-night cycle, at a temperature of 22±2° C. and 50% humidity.
In order to assess the osteoinductive capacity of the disaccharide via the acceleration of the phenomenon of bone reconstruction and to determine the concentration of the optimal DP2 molecule, and the nature of the most adapted support under the physiological conditions of the fracture consolidation operation (inflammatory reaction, cellular activity), 2 bone defects were made in the skull of rats.
Three different types of supports were tested and two different concentrations of DP2.
In order to reduce the number of used rats, two bone defects were made per rat; one defect was left blank and was used as an internal control for each rat. Thus, the support-only group is considered the control of the experiment. […] For the support-only condition, the latter is mixed with sterile saline solution.
After being assigned to one of the 12 groups shown above, the rat was anesthetized using IsoVet (isoflurane) in the mask (5% in the induction and 2 to 3% in maintenance dose). After 5 min, a nociception test was performed by pinching the paw or tail of the animal to check the effectiveness of the anesthesia. On the workstation, a shaving and a disinfection with vetedine were then carried out next to the incision.
A local anesthesia was also carried out with 7 mg/kg of 2% lidocaine (20 mg/mL) diluted to 5 mg/ml.
On the workstation, the incision of the skin with a 15 blade cold scalpel along the midline was performed, followed by the detachment of the subcutaneous tissues. Then, the incision along the midline and the lifting and lateral displacement of the periosteum were made. […] Saline solution was used during the milling steps. The implantation of the support, depending on the group, on the left side was made; the right side, without support, was used as a control to assess the effect of the lesion and the natural repair processes without the presence of support. The periosteum was put back in place and sutured with 7/0 skin suture. The skin was also put back in place and closed with 4/0 skin suture.
The rat was injected with buprenorphine at a dose of 0.05 mg/kg subcutaneously as an analgesic. After awakening, the rat was returned to its conventional housing conditions, by putting 1 rat per cage. The animals were supervised daily and animal welfare monitoring was carried out.

[2] = Acetate migration DP2/DP2′ in solution (stability); type: physicochemical; conditions: in methanol
Protocol: The compound DP2′ was extracted from the DP2-DP2′ mixture which is formed when the compound DP2 is dissolved in water. The compound DP2′ has been separated by preparative HPLC chromatography with water as elution solvent.
The inventors have observed that when the compound DP2′ was in water, the delocalization of the acetate group was also present, but with very slow kinetics compared to the DP2→DP2′ reaction. Thus, a solution of DP2′ in water which is left to rest contains, after 44 days, 10 to 15% of DP2. The DP2′ therefore remains alone in the water for a given duration which is quite long. It is therefore possible to test the biological effect of DP2′ in solution in water.
Similarly, the inventors have observed that the kinetics of the DP2→DP2′ reaction is such that it is also possible to test the biological activity of the compound DP2 alone after extraction of the formed compound DP2′. Thus, the two compounds DP2 and DP2′ can coexist or not in water for a given duration.
In methanol, for example, the compound DP2 is therefore alone.
There is about ⅔ of DP2R2 for ⅓ of DP2′. The compound DP2′ comes from a migration of the acetate group (R2) on the 30H position. The compound DP2′ could be isolated and synthesized as previously indicated. […]

[3] = Bio-oss support + DP2R2 3 mM vs Bio-oss only, D 14
[4] = Bio-oss support + DP2R2 3 mM vs Bio-oss only, D 29
[5] = Bio-oss support + DP2R2 3 mM vs Bio-oss only, D 63
[6] = Bio-oss support + DP2R2 3 mM vs Bio-oss only, D 91
[7] = Bio-oss support + DP2R2 9 mM vs Bio-oss only, D 14
[8] = Bio-oss support + DP2R2 9 mM vs Bio-oss only, D 29
[9] = Bio-oss support + DP2R2 9 mM vs Bio-oss only, D 63
[10] = Bio-oss support + DP2R2 9 mM vs Bio-oss only, D 91
[11] = Collagen support + DP2R2 3 mM vs Collagen only, D 14
[12] = Collagen support + DP2R2 3 mM vs Collagen only, D 29
[13] = Collagen support + DP2R2 3 mM vs Collagen only, D 63
[14] = Collagen support + DP2R2 3 mM vs Collagen only, D 91
[15] = Collagen support + DP2R2 9 mM vs Collagen only, D 14
[16] = Collagen support + DP2R2 9 mM vs Collagen only, D 29
[17] = Collagen support + DP2R2 9 mM vs Collagen only, D 63
[18] = Collagen support + DP2R2 9 mM vs Collagen only, D 91
[19] = MBCP support + DP2R2 3 mM vs MBCP only, D 14
[20] = MBCP support + DP2R2 3 mM vs MBCP only, D 29
[21] = MBCP support + DP2R2 3 mM vs MBCP only, D 63
[22] = MBCP support + DP2R2 3 mM vs MBCP only, D 91
[23] = MBCP support + DP2R2 9 mM vs MBCP only, D 14
[24] = MBCP support + DP2R2 9 mM vs MBCP only, D 29
[25] = MBCP support + DP2R2 9 mM vs MBCP only, D 63
[26] = MBCP support + DP2R2 9 mM vs MBCP only, D 91

With `CCCO[C@H]1OC(CO)[C@@H](O[C@@H]2OC(CO)[C@@H](O)C(O)C2NC(C)=O)C(O)C1OC(C)=O` (stereo partly drawn) [DP2, n-propyl, 2-O-acetyl-α-D-Glucopyranoside, 4-O-(2-acetamido-2-deoxy-β-D-glucopyranosyl)] the BMD [1, 3] was “=”, the BV/TV [1, 3] was “=” and the BMD [1, 4] was “=”. For the same compound, the BV/TV [1, 4] was “=”, the BMD [1, 5] was “=” and the BV/TV [1, 5] was “=”. For the same compound, the BMD [1, 6] was “=”, the BV/TV [1, 6] was “=” and the BMD [1, 7] was “=”. For the same compound, the BV/TV [1, 7] was “=”, the BMD [1, 8] was “=” and the BV/TV [1, 8] was “=”. For the same compound, the BMD [1, 9] was “=”, the BV/TV [1, 9] was “=” and the BMD [1, 10] was “=”. For the same compound, the BV/TV [1, 10] was “=”, the BMD [1, 11] was “↑*” and the BV/TV [1, 11] was “=”. For the same compound, the BMD [1, 12] was “=”, the BV/TV [1, 12] was “=” and the BMD [1, 13] was “=”. The BV/TV [1, 13] was “=”, the BMD [1, 14] was “=” and the BV/TV [1, 14] was “=”. The BMD [1, 15] was “=”, the BV/TV [1, 15] was “=” and the BMD [1, 16] was “=”. For the same compound, the BV/TV [1, 16] was “=”, the BMD [1, 17] was “=” and the BV/TV [1, 17] was “=”. The BMD [1, 18] was “=”, the BV/TV [1, 18] was “=” and the BMD [1, 19] was “=”. The BV/TV [1, 19] was “=”, the BMD [1, 20] was “↑*” and the BV/TV [1, 20] was “=”. The BMD [1, 21] was “↑*”, the BV/TV [1, 21] was “=” and the BMD [1, 22] was “↑***”. For the same compound, the BV/TV [1, 22] was “=”, the BMD [1, 23] was “=” and the BV/TV [1, 23] was “=”. The BMD [1, 24] was “↑*”, the BV/TV [1, 24] was “=” and the BMD [1, 25] was “↑***”. For the same compound, the BV/TV [1, 25] was “=”, the BMD [1, 26] was “↑*” and the BV/TV [1, 26] was “=”. The bone mineralization ([1]; collagen+DP2 [3 mM], D14) was “increases the bone mineralization”, the “in-vivo toxic effect (survival, infection, hematoma, necrosis at defect sites)” value ([1]; rats, 3 months after implantation) was “does not have any in-vivo toxic effect” and the “bone mineralization relative MBCP alone” value ([1]; the 2 MBCP+DP2 groups (3 mM, 9 mM), from D29 post-surgery) was “increase the bone mineralization”. For the same compound, the “delocalization of the acetate group” value [2] was “no delocalization of the acetate group has been observed”.
